Measurements taken from ChEMBL document CHEMBL1128624, “Syntheses of -, -monoglycosylceramides and four diastereomers of an -galactosylceramide” (Bioorg Med Chem Lett, 1995).
The source made the active and inactive calls. No cut-off for these calls is given here.

Species: Mus musculus
Assay: Antitumor activity against B16-melanoma bearing mice; active
Format: functional, organism-based

For `CCCCCCCCCCCCCCCCCCCCCC[C@@H](O)C(=O)N[C@@H](CO[C@H]1O[C@@H](CO)[C@H](O)[C@H](O)[C@@H]1O)[C@H](O)[C@H](O)CCCCCCCCCCCC(C)CC` (some centres undefined), which Activity is on record?
The Activity was “Active”.

How did the Activity turn out when `CCCCCCCCCCCCCCCCCCCCCCC[C@@H](O)C(=O)N[C@@H](CO[C@H]1O[C@@H](CO)[C@H](O)[C@H](O)[C@@H]1O)[C@H](O)[C@H](O)CCCCCCCCCCCC(C)CC` (some centres undefined) was run?
The Activity was “Active”.

Which Activity does the source give for `CCCCCCCCCCCCCCCCCCCCCC[C@@H](O)C(=O)N[C@@H](CO[C@H]1O[C@@H](CO)[C@H](O)[C@H](O)[C@@H]1O)[C@H](O)[C@H](O)CCCCCCCCCCCC` here?
Its Activity is “Active”.

Which Activity does the source give for `CCCCCCCCCCCCCCCCCCCCCC[C@@H](O)C(=O)N[C@@H](CO[C@H]1O[C@@H](CO)[C@H](O)[C@H](O)[C@@H]1O)[C@H](O)[C@H](O)CCCCCCCCCCCC(C)C` here?
Its Activity is “Active”.
